Test results taken from article PMC9328652, “A novel class of fast‐acting antimalarial agents: Substituted 15‐membered azalides” (British Journal of Pharmacology, 2020).
Where two headings read alike, the source gives them in different places.

Key:
[1] = system: Plasmodium falciparum 3D7A (sensitive); parameters: method as in Pesic et al. ([2012]); conditions: 72 h of incubation; ref Pesic et al. ([2012]); cited from earlier work
[2] = system: Plasmodium falciparum W2 (chloroquine/pyrimethamine resistant); parameters: method as in Pesic et al. ([2012]); conditions: 72 h of incubation; ref Pesic et al. ([2012]); cited from earlier work
[3] = system: normal human bronchial epithelium (NHBE); assay: Accumulation and retention in human primary cells, NHBE; assay type: in vitro ADME; conditions: mean (SD)
Experimental: (§1) Accumulation and retention in human primary cells was determined as described in detail previously (Stepanic et al., [2011]). Briefly, normal human bronchial epithelial cells (NHBE, CC‐2541, Lonza), normal human lung fibroblasts (NHLF, CC‐2512, Lonza), and bronchial smooth muscle cells (BSMC, CC‐2576, Lonza) were cultivated according to the protocols of the suppliers. Human polymorphonuclear cells (PMN) and monocytes from healthy volunteers were isolated from buffy coats. Monocytes were isolated by negative selection on magnetic separator. Monocyte‐derived macrophages (MDM) were obtained by cultivating monocytes with 5 ng·ml^−1 rhGMCSF for 10 days. To determine compound accumulation cells were incubated with 3–10 μM of compounds in their corresponding culture medium for 3 h at 37°C in 5% CO2, washed, and lysed. To measure cellular retention of compounds, after being washed, drug‐loaded cells were incubated in fresh medium for 3 h, washed, and lysed. Compound concentrations were determined by HPLC–MS/MS analysis and expressed as % of azithromycin measurements.

[4] = system: Plasmodium falciparum 3D7A (sensitive); assay: [3H]hypoxanthine incorporation antimalarial assay, strain 3D7A; assay type: cell-based; conditions: 72 h of incubation, N = 3
Experimental: The activity of the test compounds against P. falciparum in vitro was determined using the tritiated hypoxanthine incorporation assay of Desjardins et al. and additionally modified by Milhous and Chulay (Chulay, Haynes, & Diggs, [1983]; Milhous, Weatherly, Bowdre, & Desjardins, [1985]).
Compounds were dissolved in DMSO and subsequently diluted in the culture medium (RPMI 1640) supplemented with 10% v/v human plasma. Serial 1:2 drug dilutions were prepared in triplicate in microtitre plates. Culture medium supplemented with 10% v/v human plasma and type A Rhesus positive human erythrocytes infected with P. falciparum strains was added to yield a haematocrit of 3% and a parasitaemia of 0.25–0.55%. The plates were incubated at 37°C in a modular incubator flushed with a mixture of 5% oxygen, 3% carbon dioxide, and 92% nitrogen for 48 h, and then [^3H]hypoxanthine was added to give a final concentration of 12.5–16 μCi·ml^−1. After incubation for additional 24 h, particulate matter was harvested on fibreglass strips and hypoxanthine incorporation determined by scintillation spectrophotometry. […] Delayed death experiments were performed by this standard method but extending the incubation time with the drug up to 96 h.

[5] = Pharmacokinetic studies in rats; assay type: in vivo, Sprague–Dawley rats; conditions: Rat; for half-life / clearance / Vd / bioavailability: male, Sprague-Dawley, whole blood; for half-life: intravenous; for clearance / Vd: iv; for clearance: blood; for Vd: read-out: Vss; for bioavailability: po
Experimental: For the in vivo pharmacokinetic study, compound 1 was dosed i.v. at 5 mg·kg^−1 (5 ml·kg^−1 dosing volume) and p.o. at a dose of 25 mg·kg^−1 (10 ml·kg^−1) to male Sprague–Dawley rats (Charles River, France), weighing ~350 g. Compounds 2 and 3 were dosed i.v. at 2 mg·kg^−1 (5 ml·kg^−1 dosing volume) and p.o. at a dose of 10 mg·kg^−1 (10 ml·kg^−1). Rats were fasted for 6–12 h (overnight fasting) prior oral administration. For serial blood sampling, rats (n = 3) dosed with an i.v. bolus of compound had blood collected at the following time points after dosing: 5, 10, 20 40, 60, 120, 240, 480, 1,440, and 1,800 min. Rats (n = 3) dosed orally had blood collected at the following time points after dosing: 15, 30, 60, 120, 240, 360, 480, 1,440, and 1,800 min.
Dosing solutions were prepared in 100% saline both for i.v. and p.o. After both routes of administration, blood samples were collected from the tail vein up to 30 h, haemolysed, and frozen until analysis. […] Subsequently, samples were assayed as described for mouse PK.

[6] = system: Polymorphonuclear leukocytes (PMN); assay: Accumulation and retention in human primary cells, PMN; assay type: in vitro ADME; conditions: mean (SD)
Experimental: as §1

[7] = system: monocyte derived macrophages (MDM); assay: Accumulation and retention in human primary cells, MDM; assay type: in vitro ADME; conditions: mean (SD)
Experimental: as §1

[8] = system: normal human lung fibroblasts (NHLF); assay: Accumulation and retention in human primary cells, NHLF; assay type: in vitro ADME; conditions: mean (SD)
Experimental: as §1

[9] = system: panel of five bacterial strains; assay: Antibacterial screen, summary over panel of five bacterial strains; assay type: cell-based
Experimental: Antibacterial activity of compounds was determined by a standard broth microdilution method (Clinical Laboratory Standard Institute CLSI, [2009]), except that for Streptococcus strains lysed blood was substituted with 5% horse serum in the testing medium. Azithromycin and chloroquine were used as controls. The activities are expressed as minimum inhibitory concentrations (MICs) in units of μg·ml^−1. The compounds have been tested in at least two and up to five independent experiments generating same or similar results (a range of one to two dilutions between tests was considered acceptable which is in accordance to CLSI acceptable quality control ranges). The organisms tested represented macrolide sensitive Gram‐positive pathogens that are mainly targeted by macrolide antibiotics. Tested streptococci were clinical isolates Streptococcus pneumoniae SP030 and Streptococcus pyogenes 3565 from internal strain collection, and other strains were obtained from ATCC bioresource centre, Staphylococcus aureus ATCC13709, Haemophilus influenzae ATCC49247, and Moraxella catarrhalis ATCC23246. Double dilutions of tested compounds were prepared using TECAN Genesis 150. Bacteria were grown on appropriate agar plates (Becton Dickinson, USA)—Columbia agar with 5% sheep blood for streptococci and M. catarrhalis, Mueller‐Hinton chocolate agar for H. influenzae , and Mueller‐Hinton agar for staphylococci.

[10] = system: bronchial smooth muscle cells (BSMC); assay: Accumulation and retention in human primary cells, BSMC; assay type: in vitro ADME; conditions: mean (SD)
Experimental: as §1

In the case of `CC[C@H]1OC(=O)[C@H](C)[C@@H](O[C@H]2C[C@@](C)(OC)[C@@H](O)[C@H](C)O2)[C@H](C)[C@@H](O[C@@H]2O[C@H](C)C[C@H](N(C)C)[C@H]2O)[C@](C)(O)C[C@@H](C)CN(C)[C@H](C)[C@@H](O)[C@]1(C)O` [Azithromycin, reference compound], the IC50 [1] is listed as 11500 nM and the IC50 [2] is listed as 2680 nM.
For `CC[C@H]1OC(=O)[C@H](C)[C@@H](O[C@H]2C[C@@](C)(OC)[C@@H](O)[C@H](C)O2)[C@H](C)[C@@H](O[C@@H]2O[C@H](C)C[C@H](N(C)C)[C@H]2O)[C@](C)(O)C[C@@H](C)CN(CCCNc2ccnc3cc(Cl)ccc23)[C@H](C)[C@@H](O)[C@]1(C)O` [Compound 1], the accumulation ([3]; 3 h) was 162 (3) % azithromycin, the retention ([3]; 3 h in fresh medium) was 123 (11) % azithromycin and the IC50 [4] was 20 nM. The DNAUCPO ([5]; p.o. 25 mg·kg^−1, mean (SD)) was 169 (21) ng*h·ml^−1·mg^−1·kg^−1, the half-life ([5]; i.v. 5 mg·kg^−1 / p.o. 25 mg·kg^−1, mean (SD)) was 23.3 h and the clearance ([5]; i.v. 5 mg·kg^−1, mean (SD)) was 2.4 mL/min/kg. For the same compound, the Vd ([5]; i.v. 5 mg·kg^−1, mean (SD)) was 3.8 L/kg, the bioavailability ([5]; i.v. 5 mg·kg^−1, p.o. 25 mg·kg^−1, mean (SD)) was 2.3% and the accumulation ([6]; 3 h) was 127 (36) % azithromycin. For the same compound, the retention ([6]; 3 h in fresh medium) was 101 (19) % azithromycin, the accumulation ([7]; 3 h) was 118 (21) % azithromycin and the retention ([7]; 3 h in fresh medium) was 94 (0) % azithromycin. For the same compound, the accumulation ([8]; 3 h) was 100 (11) % azithromycin, the retention ([8]; 3 h in fresh medium) was 85 (3) % azithromycin and the “antibacterial activity (in words)” value [9] was “inhibited the growth of whole cell bacteria”. For the same compound, the accumulation ([10]; 3 h) was 148 (77) % azithromycin and the retention ([10]; 3 h in fresh medium) was 118 (19) % azithromycin.
In the case of `CC[C@H]1OC(=O)[C@H](C)[C@@H](O)[C@H](C)[C@@H](O[C@@H]2O[C@H](C)C[C@H](N(C)C)[C@H]2OCCCNc2ccnc3ccccc23)[C@](C)(O)C[C@@H](C)CN[C@H](C)[C@@H](O)[C@]1(C)O` [Compound 3], the IC50 [4] is reported as 20 nM, the DNAUCPO ([5]; oral gavage 10 mg·kg^−1, mean (SD)) is reported as 36.2 (29) ng*h·ml^−1·mg^−1·kg^−1 and the half-life ([5]; i.v. 2 mg·kg^−1 / p.o. 10 mg·kg^−1, mean (SD)) is reported as 18.8 h. The clearance ([5]; i.v. 2 mg·kg^−1, mean (SD)) was 4 mL/min/kg, the Vd ([5]; i.v. 2 mg·kg^−1, mean (SD)) was 6.3 L/kg and the bioavailability ([5]; i.v. 2 mg·kg^−1, p.o. 10 mg·kg^−1, mean (SD)) was 1%. For the same compound, the “antibacterial activity (in words)” value [9] was “no antibacterial activity”.
